Counter-ions that a name gives are not always drawn. Like-named read-outs stand apart in the source and are kept apart here.
Columns and labels:
[1] = biological target: T1, human recombinant bradykinin B1 receptor (Homo sapiens, UniProt P46663); assay: Human recombinant bradykinin B1 receptor binding
T1 construct: purchased Euroscreen ES-091; host or cells: CHO cells
T1 sequence (P46663 1-353): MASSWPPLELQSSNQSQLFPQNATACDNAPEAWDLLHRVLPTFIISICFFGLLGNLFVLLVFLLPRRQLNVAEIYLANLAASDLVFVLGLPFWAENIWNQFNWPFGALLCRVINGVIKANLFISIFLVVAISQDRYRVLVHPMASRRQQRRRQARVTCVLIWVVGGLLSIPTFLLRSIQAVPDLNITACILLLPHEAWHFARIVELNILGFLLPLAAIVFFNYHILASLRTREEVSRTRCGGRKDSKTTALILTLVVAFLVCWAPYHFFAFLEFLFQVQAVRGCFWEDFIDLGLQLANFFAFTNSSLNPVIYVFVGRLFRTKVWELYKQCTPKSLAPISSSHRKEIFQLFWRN
Experimental: Receptor Binding Assays 1. Human Recombinant Bradykinin B1 Receptor Binding
Binding assays were carried out on human recombinant bradykinin) receptors (expressed in CHO cells) according to the Euroscreen Technical Data Sheet (Cat.No.:ES-091). 20 μg protein/tube was incubated with [3,4-prolyl-3,4-^3H(N)]-[Des-Arg^10] Kallidin as radioligand. Non specific binding was determined in the presence of 10 μM Lys-des-Arg^9-Bradykinin. The final incubation volume was 250 μl. Samples were incubated for 15 min. at 25° C. then were rapidly vacuum filtered through GF/B filters presoaked for at least 1 h in 0.5% PEI. Radioactivity was determined by liquid scintillation spectroscopy.

[2] = biological target: T2, recombinant human B1 receptors (Homo sapiens, UniProt P46663); assay: Functional assay: antagonist potency by cytosolic calcium measurement in CHO-B1 cells (agonist LysDABK); assay type: cell-based
T2 construct: host or cells: CHO (CHO-B1)
T2 sequence (P46663 1-353): T1 sequence (P46663 1-353)
Experimental: Assessment of Antagonist Potency at B1 and B2 Receptors In Vitro by Measurement of Cytosolic Calcium Ion Concentration with a Plate Reader Fluorimeter in Cells Expressing Recombinant Human B1 or B2 Receptors
Chinese hamster ovary (CHO) cells stably expressing recombinant human B1 (CHO-B1, Euroscreen) or B2 (CHO-B2, Perkin-Elmer) receptors were cultured in Dulbecco's Modified Eagle's Medium (DMEM) containing 10% Fetal Calf Serum (FCS), 100 U/ml penicillin, 0.1 mg/ml streptomycin, 0.25 μg/ml amphotericin B, 1% Minimum Essential Medium Eagle (MEM), non essential amino acid solution, 600 μg/ml G418, 1% pyruvate (for the B2 cell line). Cells were kept at 37° C. in a humidified incubator in an atmosphere of 5% CO2/95% air and were passaged 1:4 three times a week. Cells were plated at 1.5-2.5×10^4 cell/well on standard 96-well microplates, measurements of cytosolic calcium ion concentration ([Ca^2+]i) were carried out 1-2 days after cell plating.
Measurements of [Ca^2+]i were carried out on CHO-B1 and CHO-B2 cells stably expressing human B1 and B2 receptors, respectively. Cells were grown in standard 96-well microplates and before the measurement were loaded with a fluorescent Ca^2+-sensitive dye, fluo-4/AM (2 μM): after removing the culture medium the dye was added to the cells (dissolved in assay buffer: 145 mM NaCl, 5 mM KCl, 2 mM MgCl2, 2 mM CaCl2, 10 mM HEPES, 20 mM D-glucose, 2 mM probenecid, 100 μl/well) and cells were incubated at 37° C. in a humidified incubator in an atmosphere of 5% CO2/95% air for 40-120 min. To stop dye loading cells were washed twice with assay buffer. After washing, various concentrations of the test compounds (diluted in extracellular medium from a DMSO stock solution, final DMSO concentration was <0.1%) or buffer were added to each well depending on the experimental setup. After incubation at 37° C. for 20-25 min. baseline and agonist-evoked changes of [Ca^2+]i were measured column by column with a plate reader fluorimeter (Fluoroskan Ascent, Labsystems). Excitation and detection of emission was carried out from the bottom of the plate. Filters used for Fluo-4: excitation filter—485 nm, emission filter—538 nm. The whole measurement process was performed at 37° C. and was controlled by custom software. Inhibitory potency of the test compounds was assessed by measuring the reduction in the agonist-evoked [Ca^2+]i-elevation in the presence of different concentrations of the compounds. The agonists were LysDABK for CHO-B1, and bradykinin for CHO-B2 cells. Agonists were applied at an EC80 concentration, the EC80-values were derived from daily determined dose-response curves. Fluorescence data were expressed as ΔF/F (fluorescence change normalized to baseline). All treatments on a single plate were measured in multiple wells. Data from all wells with the same treatment were averaged and the average values were used for analysis. Inhibitory potency of a compound at a single concentration point was expressed as percent inhibition of the control agonist response. Sigmoidal concentration-inhibition curves were fitted to the data (derived from at least three independent experiments) and IC50-values were determined as the concentration that produces half of the maximal inhibition caused by the compound.

[3] = CHO cell membranes, [3H]-[Des-Arg10] Kallidin radioligand, read-out: B1 binding
[4] = CHO-B1 cells, LysDABK at EC80, fluo-4 [Ca2+]i, read-out: B1 func.
[5] = reference compounds, binding test, read-out: Ki
[6] = reference compounds, functional test, read-out: IC50

Row | Ki [1, 3] [µM] | IC50 [2, 4] [µM] | SMILES | Ki [1, 5] [µM] | IC50 [2, 6] [µM]
1 | 0.02 to 0.1 | < 0.02 | O=C(NCC(=O)N1CCNCC1)c1ccc(S(=O)(=O)Nc2ccccc2Oc2ccccc2)cc1 [Example 11.2, N-(2-Oxo-2-piperazin-1-yl-ethyl)-4-(2-phenoxy-phenylsulfamoyl)-benzamide hyrochloride] |  | 
2 | < 0.02 | < 0.02 | NC1CCN(C(=O)CNC(=O)c2ccc(S(=O)(=O)Nc3ccccc3Oc3ccccc3)cc2)CC1 [Example 11.3, N-[2-(4-Amino-piperidin-1-yl)-2-oxo-ethyl]-4-(2-phenoxy-phenylsulfamoyl)-benzamide hydrochloride] |  | 
3 | < 0.02 | < 0.02 | O=C(NCC(=O)N1CCNCC1)c1ccc(S(=O)(=O)Nc2ccccc2Oc2ccc(Cl)cc2Cl)cc1 [Example 11.4, 4-[2-(2,4-Dichloro-phenoxy)-phenylsulfamoyl]-N-(2-oxo-2-piperazin-1-yl-ethyl)-benzamide hydrochloride] |  | 
4 | < 0.02 | < 0.02 | O=C(NCC(=O)N1CCCNCC1)c1ccc(S(=O)(=O)Nc2ccccc2Oc2ccc(Cl)cc2Cl)cc1 [Example 11.5, N-(2-[1,4]Diazepan-1-yl-2-oxo-ethyl)-4-[2-(2,4-dichloro-phenoxy)-phenylsulfamoyl]-benzamide hydrochloride] |  | 
5 | < 0.02 | < 0.02 | O=C(NCC(=O)N1CCCNCC1)c1ccc(S(=O)(=O)Nc2ccccc2C(=O)c2ccccc2)cc1 [Example 11.6, 4-(2-Benzoyl-phenylsulfamoyl)-N-(2-[1,4]diazepan-1-yl-2-oxo-ethyl)-benzamide hydrochloride] |  | 
6 | < 0.02 | < 0.02 | O=C(NCC(=O)N1CCNCC1)c1ccc(S(=O)(=O)Nc2ccccc2C(=O)c2ccccc2)cc1 [Example 11.7, 4-(2-Benzoyl-phenylsulfamoyl)-N-(2-oxo-2-piperazin-1-yl-ethyl)-benzamide hydrochloride] |  | 
7 |  |  | CN1CCN(C(=O)C2CCN(S(=O)(=O)c3ccc(NCC(c4ccccc4)c4ccccc4)c(C(=O)N4CCOCC4)c3)CC2)CC1 [NVP-SAA164, 4-{2-[(2,2-diphenyl-ethyl)-amino]-5-{-4-[4-[(4-methyl-1-piperazinyl)-carbonyl]-1-piperidinyl]-sulfonyl}-benzoyl}-morfoline, reference compound] | 0.008 | 0.033
8 |  |  | CCCN1C(=O)[C@H](NC(=O)Nc2ccc(N3CCC(N4CCCCC4)CC3)cc2)N=C(c2ccc(C)cc2)c2ccccc21 [compound 3, N-[4-(,4′-bipiperidin)-1′-ylphenyl]-N′-[(3R)-2,3-dihydro-5-(4-methyl-phenyl)-2-oxo-1-propyl-1H-1,4-benzodiazepin-3-yl]-urea, reference compound] | 0.0134 | 0.0645

Reference: US8481527B2, “Benzamide derivatives as bradykinin antagonists” (Richter Gedeon Nyrt., priority 2006, dated 2013)
